# Assay results reported in patent US9648880B2, “Antifungal agents and uses thereof” (University of Massachusetts, priority 2012, dated 2017).
# “And” between values parts separate entries of the source, which are not always exact repeats. Equal values may be shown once.
# Key:
# Rtt109-Vps75 = target: T1, Rtt109-Vps75 (Saccharomyces cerevisiae, UniProt Q07794); assay: HAT-ThioGlo1 time course assay, Rtt109-Vps75; format: biochemical, S. cerevisiae; settings: IC50, 50 nM Rtt109-Vps75, 15 μM H3n21 peptide, 30 μM Ac-CoA
# T1 construct: 6xHis (on one of the two proteins of the complex); made in house; host or cells: bacteria
# T1 sequence (Q07794 1-436): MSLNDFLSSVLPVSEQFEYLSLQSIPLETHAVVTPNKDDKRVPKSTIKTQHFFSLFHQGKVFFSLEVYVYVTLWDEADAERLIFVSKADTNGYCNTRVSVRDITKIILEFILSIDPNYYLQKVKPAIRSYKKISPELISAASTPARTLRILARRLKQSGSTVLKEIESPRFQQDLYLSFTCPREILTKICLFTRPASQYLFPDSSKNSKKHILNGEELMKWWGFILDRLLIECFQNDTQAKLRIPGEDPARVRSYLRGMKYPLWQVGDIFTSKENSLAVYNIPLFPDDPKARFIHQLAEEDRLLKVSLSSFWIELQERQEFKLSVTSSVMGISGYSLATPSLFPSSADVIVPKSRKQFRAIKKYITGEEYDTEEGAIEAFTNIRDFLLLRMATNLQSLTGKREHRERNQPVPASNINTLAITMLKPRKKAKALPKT
# T1 sequence (P53853 1-264 partner): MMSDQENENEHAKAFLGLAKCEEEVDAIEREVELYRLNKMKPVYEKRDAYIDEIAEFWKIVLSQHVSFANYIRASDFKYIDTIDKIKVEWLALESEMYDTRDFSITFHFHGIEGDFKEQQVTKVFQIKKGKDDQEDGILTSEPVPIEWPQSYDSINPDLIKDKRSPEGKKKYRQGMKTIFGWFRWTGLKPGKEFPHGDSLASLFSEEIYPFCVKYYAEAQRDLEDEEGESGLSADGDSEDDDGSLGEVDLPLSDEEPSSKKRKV
# p300 = target: T2, p300 (Homo sapiens, UniProt Q09472); assay: HAT-ThioGlo1 time course assay, p300; format: biochemical; settings: up to 100 μM
# T2 construct: p300 catalytic domain (p300 amino acids 1195-1810; Fan, 2010); 6xHis (N); FLAG (N); made in house; host or cells: BL21 E. coli
# T2 sequence (Q09472 1195-1810): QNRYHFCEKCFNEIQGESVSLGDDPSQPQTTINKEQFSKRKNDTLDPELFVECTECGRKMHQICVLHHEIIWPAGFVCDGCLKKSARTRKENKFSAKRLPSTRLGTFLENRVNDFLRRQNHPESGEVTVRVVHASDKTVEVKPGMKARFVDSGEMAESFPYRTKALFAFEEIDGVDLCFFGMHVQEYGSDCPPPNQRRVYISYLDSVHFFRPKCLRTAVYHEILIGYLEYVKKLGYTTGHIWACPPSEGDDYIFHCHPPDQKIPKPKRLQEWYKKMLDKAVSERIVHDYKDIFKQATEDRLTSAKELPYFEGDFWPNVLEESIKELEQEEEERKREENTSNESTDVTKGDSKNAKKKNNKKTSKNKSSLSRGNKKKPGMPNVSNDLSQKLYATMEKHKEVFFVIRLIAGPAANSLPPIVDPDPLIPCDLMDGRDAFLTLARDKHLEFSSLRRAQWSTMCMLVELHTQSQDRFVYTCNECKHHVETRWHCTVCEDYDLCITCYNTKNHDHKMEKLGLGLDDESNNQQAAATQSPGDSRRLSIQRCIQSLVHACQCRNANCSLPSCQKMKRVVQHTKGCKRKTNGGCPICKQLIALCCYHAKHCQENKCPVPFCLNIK
# Gcn5 = target: T3, Gcn5 (Saccharomyces cerevisiae, UniProt Q03330); assay: HAT-ThioGlo1 time course assay, Gcn5; format: biochemical, S. cerevisiae; settings: up to 100 μM
# T3 construct: 6xHis (N); made in house; host or cells: BL21 E. coli
# T3 sequence (Q03330 whole entry): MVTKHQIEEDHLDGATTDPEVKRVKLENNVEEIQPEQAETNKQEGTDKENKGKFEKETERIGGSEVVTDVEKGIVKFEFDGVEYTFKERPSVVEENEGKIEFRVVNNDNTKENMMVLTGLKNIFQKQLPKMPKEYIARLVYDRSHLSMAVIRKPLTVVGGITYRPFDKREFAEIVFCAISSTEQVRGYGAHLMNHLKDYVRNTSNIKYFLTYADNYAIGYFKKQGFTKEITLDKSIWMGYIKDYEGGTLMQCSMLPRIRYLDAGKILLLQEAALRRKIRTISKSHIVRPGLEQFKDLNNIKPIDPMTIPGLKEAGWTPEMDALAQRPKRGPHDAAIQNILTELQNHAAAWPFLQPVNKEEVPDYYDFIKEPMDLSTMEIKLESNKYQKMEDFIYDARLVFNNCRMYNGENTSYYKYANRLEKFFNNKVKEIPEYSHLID
smiles,measurement,setting,value
"CCCC1(c2ccccc2)NC(=O)N(CC(=O)N(C)Cc2c(F)cccc2Cl)C1=O (stereo not drawn) [KB7, N-[(2-chloro-6-fluorophenyl)methyl]-2-(2,5-dioxo-4-phenyl-4-propylimidazolidin-1-yl)-N-methylacetamide]",IC50,Rtt109-Vps75,55.2 nM and ~56 nM
same,"enzyme reaction rate, % activity",p300,≥ 80%
same,"enzyme reaction rate, % activity",Gcn5,≥ 80%
